Experimental data: patent US8715368B2, “Thiophene azo dyes and laundry care compositions containing the same” (The Procter & Gamble Company, priority 2010, dated 2014)

Assay: Aqueous Partition Value of a dye (water/1-octanol partitioning, absorbance at λmax)
Assay type: physicochemical
Settings: deionized water/1-octanol 10.0 mL each, APV=(Af/Ai)×100%
Protocol: Dissolve in deionized water to a final volume of 10.0 mL an amount of dye sufficient to provide a solution absorbance value between 0.25 and 1.0, said absorbance being determined at the dye λmax between 400 nm and 750 nm, using a cuvette with 1.0 cm path length. Measure the absorbance of the sample at the dye λmax in a UV/Vis spectrophotometer, then transfer the entire 10.0 mL solution to a 50.0 mL plastic centrifuge tube. Add 10.0 mL of 1-octanol, cap the tube, and mix vigorously for 30 seconds using a Vortex™ mixer. Leave the tube standing undisturbed until the layers cleanly phase separate.
Using a transfer pipette, withdraw an aliquot of the aqueous (bottom) layer and transfer it to a cuvette with 1.0 cm path length for spectrophotometric analysis. Analyze the solution as before, and quantify the absorbance loss at λmax as “% of Dye Remaining in Aqueous Layer” as detailed below: % of Dye Remaining in Aqueous Layer=Aqueous Partition Value (APV)=(Af/Ai)×100% wherein Ai is the initial solution absorbance at λmax and Af is the final solution absorbance at λmax. II. Method for Determining Hueing Efficiency for Detergents • a.) Two 25 cm×25 cm fabric swatches of 16 oz white cotton interlock knit fabric (270 g/square meter, brightened with Uvitex BNB fluorescent whitening agent, from Test Fabrics. P.O. Box 26, Weston, Pa., 18643) are obtained. • b.) Prepare two one liter aliquots of tap water containing 1.55 g of AATCC standard heavy duty liquid (HDL) test detergent. • c.) Add a sufficient amount the dye to be tested to one of the aliquots from Step b.) above to produce an aqueous solution absorbance of 1 AU. • d.) Wash one swatch from a.) above in one of the aliquots of water containing 1.55 g of AATCC standard heavy duty liquid (HDL) test detergent and wash the other swatch in the other aliquot. Such washing step should be conducted for 30 minutes at room temperature with agitation. After such washing step separately rinse the swatches in tap water and air dry the swatches in the dark. • e.) After rinsing and drying each swatch, the hueing efficiency, DE*eff, of the dye is assessed by determining the L*, a*, and b* value measurements of each swatch using a Hunter LabScan XE reflectance spectrophotometer with D65 illumination, 10° observer and UV filter excluded. The hueing efficiency of the dye is then calculated using the following equation: DE*eff=((L*c−L*s)^2+(a*c−a*s)^2+(b*c−b*s)^2)^1/2 • wherein the subscripts c and s respectively refer to the L*, a*, and b* values measured for the control, i.e., the fabric sample washed in detergent with no dye, and the fabric sample washed in detergent containing the dye to be screened. III. Method for Determining Wash Removability • a.) Prepare two separate 150 ml aliquots of HDL detergent solution, according to AATCC Test Method 61-2003, Test 2A and containing 1.55 g/liter of the AATCC HDL formula in distilled water. • b.) A 15 cm×5 cm sample of each fabric swatch from the Method for Determining of Hueing Efficiency For Detergents described above is washed in a Launderometer for 45 minutes at 49° C. in 150 ml of a the HDL detergent solution prepared according to Step 11. a.) above. • c.) The samples are rinsed with separate aliquots of rinse water and air dried in the dark, and then L*, a*, and b* value measurements of each swatch are taken using a Hunter LabScan XE reflectance spectrophotometer with D65 illumination, 10° observer and UV filter excluded. The amount of residual coloration is assessed by measuring the DE*res, calculated using the following equation: DE*res=((L*c−L*s)^2+(a*c−a*s)^2+(b*c−b*s)^2)^1/2 • wherein the subscripts c and s respectively refer to the L*, a*, and b* values measured for the control, i.e., the fabric sample initially washed in detergent with no dye, and the fabric sample initially washed in detergent containing the dye to be screened. The wash removal value for the dye is then calculated according to the formula: % removal=100×(1−DE*res/DE*eff). C. Test Results […]

Row | Compound | % Dye in Water Layer
1 | CC[N+](CC)(CC)CCOCCOCCN(CCOCC[N+](CC)(CC)CC)c1cc(OC)c(/N=N/c2sc(C#N)c(C)c2C#N)cc1OC [Example 19] | 78%
2 | CC[N+](CC)(CC)CCN(CC[N+](CC)(CC)CC)c1ccc(/N=N/c2sc(C#N)c(C)c2C#N)c(C)c1 [Example 36] | 94%
3 | CC[N+](CC)(CC)CCOCCOCCN(CCOCC[N+](CC)(CC)CC)c1cc(C)c(/N=N/c2sc(C#N)c(C)c2C#N)cc1OC [Example 18] | 49%
4 | CC[N+](CC)(CC)CCOCCOCCN(CCOCC[N+](CC)(CC)CC)c1ccc(/N=N/c2sc(C#N)c(C)c2C#N)c(C)c1 [Example 35] | 66%
5 | CCN(CC[N+](CC)(CC)CC)c1ccc(/N=N/c2sc(C#N)c(C)c2C#N)c(C)c1 [Example 7] | 15%
6 | CCN(CCOCCOCCOCCOCC[N+](CC)(CC)CC)c1ccc(/N=N/c2sc(C#N)c(C)c2C#N)c(C)c1 [Example 12] | 15%
7 | COc1cc(/N=N/c2sc(C#N)c(C)c2C#N)c(C)cc1N(CCOCCOCC[N+](CCO)(CCO)CCO)CCOCC[N+](CCO)(CCO)CCO [Example 22] | 56%

More lines, now with the values ahead:

Row | % Dye in Water Layer | Compound
8 | 83% | Cc1cc(N(CCn2cc[n+](C)c2)CCn2cc[n+](C)c2)ccc1/N=N/c1sc(C#N)c(C)c1C#N [Example 2]
9 | 97% | COc1cc(/N=N/c2sc(C#N)c(C)c2C#N)c(C)cc1N(CCn1cc[n+](C)c1)CCn1cc[n+](C)c1 [Example 1]
10 | 75% | COc1cc(/N=N/c2sc(C#N)c(C)c2C#N)c(C)cc1N(CCOCCOCC[N+](C)(C)CCO)CCOCC[N+](C)(C)CCO [Example 21]
